Measured values published in patent US20240385173A1, “METHODS AND APPARATUS FOR TESTING IMMUNO-ONCOLOGY DRUGS AND BIOLOGICS USING MICROORGANOSPHERES” (Xilis, Inc., priority 2021, published 2024).
“Also recorded” adds a separate entry of the source. Where two headings read alike, the source gives them in different places.

How the values were obtained:
mouse liver MOSs = test: Toxicity assay using mouse liver MOSs; format: cell-based; details: 10 mM; FIGS. 33A-33B
human liver MOSs = test: Toxicity assay using human liver MOSs; format: cell-based; details: 10 mM; FIGS. 34A-34B
Source text: Similarly, FIGS. 34A-34B also show toxicity assays using human liver MOSs.

[1] = test system: MOSs derived from pulmonary tumor biopsy; test: Annexin V apoptosis assay on MOSs derived from a pulmonary tumor biopsy; format: cell-based, human
Method: (§1) Assays of the MOSs for these pulmonary and renal tumor biopsies were prepared with an Annexin V marker to indicate cellular apoptosis. […] If this test were run on, for example, traditional bulk organoids, the results would not be meaningful (due to the lack of patient immune cells) leading to uncertainty in the best course of action for patient treatment.
Assays of the MOSs for this pulmonary tumor biopsy were prepared with an Annexin V marker to indicate cellular apoptosis. […] If this test were run on, for example, traditional bulk organoids, the results would be less accurate (because ESK1 would not be able to reach its target) leading to uncertainty in the best course of action for patient treatment.
Assays of the MOSs for this pulmonary tumor biopsy were prepared with an Annexin V marker to indicate cellular apoptosis and Cytolight Red dye to indicate tumor infiltrating lymphocytes (TIIs). […] If this test were run on, for example, traditional bulk organoids, the results would be less accurate (due to the inability of PBMC to penetrate the traditional bulk organoids) leading to uncertainty in the best course of action for patient treatment.
Assays of the MOSs for this pulmonary tumor biopsy were prepared with an Annexin V marker to indicate cellular apoptosis. […] This is an indication that TIIs can penetrate MOS to kill tumor cells. […]

[2] = test system: MOSs derived from renal tumor biopsy; test: Annexin V apoptosis assay on MOSs derived from a renal tumor biopsy; format: cell-based, human
Method: as §1

[3] = test system: MOSs derived from multiple myeloma (MM) bone marrow biopsies; test: Caspase 3/7 green dye apoptosis assay on multiple myeloma MOSs (Incucyte imaging); format: cell-based, human; details: MM MOSs on day 11, images every 2 hours for 4 days
Method: FIGS. 44A and 44B show the efficacy of Lenalidomide and Bortezoid on MOSs derived from multiple myeloma (MM) bone marrow biopsies. MM MOSs (on day 11) were treated with Lenalidomine (5 uM) or Bortezoid (2 nM). Caspase 3/7 green dye was added in the assay to monitor apoptosis. Incucyte images were taken every 2 hours for 4 days. […] If this test were run on, for example, traditional bulk organoids, the results would not be reliable (due to the lack of patient immune cells) leading to uncertainty in the best course of action for patient treatment.

[4] = test system: PDX19187 bulk organoids and MOSs; format: cell-based, human; details: PDX19187 (also printed PDO19187, PDZ-19187), cell viabilities after 3 days of treatment
Method: (§2) Organoids were formed from Patient Derived Xenograft cells (including the PDX240 cells described above and a second PDX cell line, PDX19187) and were compared with MOSs formed using the same cells. The organoids were formed using conventional techniques in which a large mass of MATRIGEL in a well or dish was seeded with cells and cultured until growth was confirmed. MOSs were generated from the traditional organoids.
(§3) Both traditional (“bulk”) organoids and the MOSs were then treated with the same drugs (e.g., Oxaliplatin or SN38) and cell viabilities were measured after 3 days of treatment.

[5] = test system: PDX240 bulk organoids and MOSs; test: Cell viability drug response curves, bulk organoids versus MOSs, PDX240; format: cell-based, human; details: cell viabilities after 3 days of treatment
Source text: In some embodiments, the MOSs may be formed from cell lines grown as part of a Patient Derived Xenograft (PDX). For example, FIGS. 28A-28D illustrate MOSs formed from cultured PDX240 cells. PDX240 cells are a Patient Derived Xenograft (PDX) tumor cell line (numbered 240 based on patient source) that were human tumors grown in immunodeficient mice (PDX) to form in vivo tumors. The xenograft tissue was extracted dissociated, and used to form MOSs as described above. In this example a single cell was included in each MOS as it was formed. […] With progressive time in culture, at least some of the MOSs show the cells dividing and forming structures.
as §2, §3

patient tumor = test: Actual response of the patient's tumor to drug treatment; format: in vivo, human; details: for patient response to treatment: Example 3 patient, treated with both Oxalipalatin and Irinotecan, after 6 months of treatment
Method: (§4) In a similar set of experiments, MOSs were generated from biopsy material (FIG. 23A), and a drug effect screen was performed using the resulting MOSs. […] Thus, the MOSs correlated strongly with patient response to the standard of care drugs. In this case, the patient endured six months of side effects and toxicities that may have been avoided by the predicted response from the MOSs, indicating (within 7-10 days from the biopsy) that the tumor would not respond to these drugs.

[6] = test system: MOSs from biopsy material; test: Drug effect screen on MOSs generated from biopsy material (Example 3); format: cell-based, human; details: FIGS. 23B, 23C
Method: as §4

traditional cell line = test: Traditional (2D) cell line dosed with drug; format: cell-based; details: all dose ranges examined; FIG. 22A
Source text: As mentioned above, the MOSs and methods of using them to screen for drug compositions may be used to accurately predict the response of a patient tumor to one or more drug therapies. […] For example, in FIG. 22A-22D, the MOSs, but not a cell line, was able to correlate with patient response.

[7] = test system: tumor MOSs from patient biopsy; test: Drug screen on tumor MOSs generated from a patient biopsy (Example 2); format: cell-based, human; details: FIG. 22B

CC(=O)Nc1ccc(O)cc1 [acetaminophen]
effect on tissue in mouse liver MOSs versus control group (mouse liver MOSs): smaller and contains many dead cells | effect on tissue in human liver MOSs versus control group (human liver MOSs): significant increase atypical tissue structures (arrows) and debris

Nivolumab
response of MOSs in the form of tumor cell apoptosis (Annexin V marker) [1]: induces apoptosis; also recorded: good response | response of MOSs in the form of tumor cell apoptosis (Annexin V marker) [2]: induces apoptosis; also recorded: good response

CC(C)C[C@H](NC(=O)[C@H](Cc1ccccc1)NC(=O)c1cnccn1)B(O)O [Bortezoid]
response of MM MOSs in the form of tumor cell apoptosis (Caspase 3/7 green dye) ([3]; 2 nM): does not and not

CCc1c2c(nc3ccc(O)cc13)-c1cc3c(c(=O)n1C2)COC(=O)[C@]3(O)CC [SN38, 7-Ethyl-10-hydroxy-camptothecin]
drug response curves of bulk organoids compared with MOSs (cell viability) [4]: comparable responses | drug response curves of bulk organoids compared with MOSs (cell viability) [5]: comparable responses

CCc1c2c(nc3ccc(OC(=O)N4CCC(N5CCCCC5)CC4)cc13)-c1cc3c(c(=O)n1C2)COC(=O)[C@]3(O)CC [Irinotecan]
patient response to treatment (patient tumor): no response | percent survival of the MOSs in the presence of the drug [6]: lack of effect

Nc1cccc2c1CN(C1CCC(=O)NC1=O)C2=O (stereo not drawn) [Lenalidomide]
response of MM MOSs in the form of tumor cell apoptosis (Caspase 3/7 green dye) ([3]; 5 uM): good response | response of MM MOSs in the form of tumor cell apoptosis (Caspase 3/7 green dye) ([3]; 5 uM, listed as Lenalidomine): induces apoptosis

O=c1[nH]cc(F)c(=O)[nH]1 [5-FU, Fluorouracil]
drug response curves of bulk organoids compared with MOSs (cell viability) [5]: comparable responses

O=C1[O][Pt]2([NH][C@@H]3CCCC[C@H]3[NH]2)[O]C1=O [Oxaliplatin]
effect of drug on traditional cell line (traditional cell line): no effect | cell survival from the tumor MOSs [7]: significant decreases in cell survival | tumor response when patient treated with the drug (patient tumor; Example 2 patient, FIGS. 22C (before) and 22D (post treatment)): responded to treatment | patient response to treatment (patient tumor): no response | percent survival of the MOSs in the presence of the drug [6]: no change in the percent survival | drug response curves of bulk organoids compared with MOSs (cell viability) ([4]; listed as Oxalipalatin): comparable response
